Source: patent publication US10221161B2, “Inhibitors of plasma kallikrein” (Kalvista Pharmaceuticals Limited, priority 2013, dated 2019)

Columns and labels:
[1] = biological target: Human plasma kallikrein (Homo sapiens (Human), UniProt P03952); experiment: Determination of the IC50 for plasma kallikrein (fluorogenic substrate H-DPro-Phe-Arg-AFC); type: biochemical; conditions: 37° C., read-out: IC50 (human PKal)
Method: Determination of the IC50 Plasma Kallikrein Plasma kallikrein inhibitory activity in vitro was determined using standard published methods (see e.g. Johansen et al., Int. J. Tiss. […] Shori et al., Biochem. Pharmacol., 1992, 43, 1209; Stürzebecher et al., Biol. Chem. Hoppe-Seyler, 1992, 373, 1025). Human plasma kallikrein (Protogen) was incubated at 37° C. with the fluorogenic substrate […] and various concentrations of the test compound.

[2] = biological target: Human KLK1 (Homo sapiens (Human), UniProt P06870); experiment: Determination of the IC50 for KLK1 (fluorogenic substrate H-DVal-Leu-Arg-AFC); type: biochemical; conditions: human KLK1, 37° C.
Human KLK1, sequence (P06870 25-262): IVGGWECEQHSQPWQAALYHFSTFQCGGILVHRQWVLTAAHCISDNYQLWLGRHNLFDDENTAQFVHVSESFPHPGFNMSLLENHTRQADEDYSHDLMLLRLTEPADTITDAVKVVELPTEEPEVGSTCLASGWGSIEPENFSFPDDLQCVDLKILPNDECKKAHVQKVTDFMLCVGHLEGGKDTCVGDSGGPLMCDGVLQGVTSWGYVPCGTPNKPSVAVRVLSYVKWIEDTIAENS
Method: Selected compounds were further screened for inhibitory activity against the related enzyme KLK1. The ability of the compounds of formula (I) to inhibit KLK1 may be determined using the following biological assay:
Determination of the IC50 for KLK1
KLK1 inhibitory activity in vitro was determined using standard published methods (see e.g. Johansen et al., Int. J. Tiss. Reac. 1986, 8, 185; Shori et al., Biochem. Pharmacol., 1992, 43, 1209; Stürzebecher et al., Biol. Chem. Hoppe-Seyler, 1992, 373, 1025). Human KLK1 (Callbiochem) was incubated at 37° C. with the fluorogenic substrate H-DVal-Leu-Arg-AFC and various concentrations of the test compound. Residual enzyme activity (initial rate of reaction) was determined by measuring the change in optical absorbance at 410 nm and the IC50 value for the test compound was determined.

Human plasma kallikrein, sequence (P03952 391-638 limits assumed): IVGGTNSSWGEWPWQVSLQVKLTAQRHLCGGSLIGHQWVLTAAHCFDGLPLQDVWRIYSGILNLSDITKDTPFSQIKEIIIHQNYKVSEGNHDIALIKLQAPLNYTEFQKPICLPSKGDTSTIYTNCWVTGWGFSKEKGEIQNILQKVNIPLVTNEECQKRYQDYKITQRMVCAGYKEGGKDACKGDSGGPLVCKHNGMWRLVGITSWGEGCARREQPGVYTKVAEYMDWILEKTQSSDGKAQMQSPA
Human plasma kallikrein, sequence (P03952 20-390 partner limits assumed): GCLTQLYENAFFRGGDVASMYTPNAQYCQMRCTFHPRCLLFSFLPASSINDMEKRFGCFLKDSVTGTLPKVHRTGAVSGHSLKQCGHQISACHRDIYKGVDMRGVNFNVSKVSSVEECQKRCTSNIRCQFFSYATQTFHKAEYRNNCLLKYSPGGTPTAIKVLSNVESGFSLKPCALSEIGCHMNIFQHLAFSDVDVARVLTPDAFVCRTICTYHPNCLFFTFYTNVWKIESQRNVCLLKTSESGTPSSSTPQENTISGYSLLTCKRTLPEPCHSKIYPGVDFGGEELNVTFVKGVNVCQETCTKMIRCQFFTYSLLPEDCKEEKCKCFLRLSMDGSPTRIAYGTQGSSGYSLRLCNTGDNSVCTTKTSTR

CN(C)[C@H]1CCN(c2cc(Cc3cncc(C(=O)NCc4ccc5c(N)nccc5c4)c3)ccn2)C1 (stereo in doubt) [Example 91, N-[(1-Aminoisoquinolin-6-yl)methyl]-5-({2-[3-(dimethylamino)pyrrolidin-1-yl]pyridin-4-yl}methyl)pyridine-3-carboxamide]
IC50 [1]: 1.71 µM | IC50 [2]: 2.11 µM

Nc1nccc2cc(CNC(=O)c3cncc(Cc4ccc(N5CCC(O)C5)nc4)c3)ccc12 (stereo not shown) [Example 59, N-[(1-Aminoisoquinolin-6-yl)methyl]-5-{[6-(3-hydroxypyrrolidin-1-yl)pyridin-3-yl]methyl}pyridine-3-carboxamide]
IC50 [1]: 0.417 µM | IC50 [2]: 6.01 µM

Nc1nccc2cc(CNC(=O)c3cncc(CN4CCN(C(=O)c5ccccc5)CC4)c3)ccc12 [Example 36, N-[(1-Aminoisoquinolin-6-yl)methyl]-5-[(4-benzoylpiperazin-1-yl)methyl]pyridine-3-carboxamide]
IC50 [1]: 6.65 µM | IC50 [2]: 23.8 µM

CC1CCCN1c1ccc(Cc2cncc(C(=O)NCc3ccc4c(N)nccc4c3)c2)cn1 (stereo not shown) [Example 58, N-[(1-Aminoisoquinolin-6-yl)methyl]-5-{[6-(2-methylpyrrolidin-1-yl)pyridin-3-yl]methyl}pyridine-3-carboxamide]
IC50 [1]: 0.153 µM | IC50 [2]: 6.52 µM

COc1ncc(C(=O)NCc2ccc3c(N)nccc3c2)cc1Cc1ccc2nc(C)ccc2c1 [Example 18, N-[(1-Aminoisoquinolin-6-yl)methyl]-6-methoxy-5-[(2-methylquinolin-6-yl)methyl]pyridine-3-carboxamide]
IC50 [1]: 0.702 µM | IC50 [2]: 1.74 µM

Cc1cnn(Cc2ccc(Cc3cncc(C(=O)NCc4ccc(CN)c(F)c4)c3)cc2)c1 [Example 96, N-{[4-(Aminomethyl)-3-fluorophenyl]methyl}-5-({4-[(4-methylpyrazol-1-yl)methyl]phenyl}methyl)pyridine-3-carboxamide]
IC50 [1]: 0.365 µM | IC50 [2]: > 40 µM

Nc1nccc2cc(CNC(=O)c3cncc(Cc4ccnc(N5CCCC5=O)c4)c3)ccc12 [Example 76, N-[(1-Aminoisoquinolin-6-yl)methyl]-5-{[2-(2-oxopyrrolidin-1-yl)pyridin-4-yl]methyl}pyridine-3-carboxamide]
IC50 [1]: 0.242 µM | IC50 [2]: 3.75 µM

Nc1nccc2cc(CNC(=O)c3cncc(CN4CCN(S(=O)(=O)c5ccccc5)CC4)c3)ccc12 [Example 35, N-[(1-Aminoisoquinolin-6-yl)methyl]-5-{[4-(benzenesulfonyl)piperazin-1-yl]methyl}pyridine-3-carboxamide]
IC50 [1]: 3.51 µM | IC50 [2]: 29.8 µM

Cc1ccc2cc(Cc3cnc(O)c(C(=O)NCc4ccc5c(N)nccc5c4)c3)ccc2n1 [Example 20, N-[(1-Aminoisoquinolin-6-yl)methyl]-5-[(2-methylquinolin-6-yl)methyl]-2-oxo-1H-pyridine-3-carboxamide]
IC50 [1]: 0.621 µM | IC50 [2]: 2.49 µM

Nc1nccc2cc(CNC(=O)c3cncc(Cc4ccnc(N5CCCC5CO)c4)c3)ccc12 (stereo not shown) [Example 89, N-[(1-Aminoisoquinolin-6-yl)methyl]-5-({2-[2-(hydroxymethyl)pyrrolidin-1-yl]pyridin-4-yl}methyl)pyridine-3-carboxamide]
IC50 [1]: 0.104 µM | IC50 [2]: 4.84 µM

Nc1nccc2cc(CNC(=O)c3cncc(Cc4ccccc4)c3)ccc12 [Example 23, N-[(1-Aminoisoquinolin-6-yl)methyl]-5-benzylpyridine-3-carboxamide]
IC50 [1]: 40 µM | IC50 [2]: 32.7 µM

Cc1cnn(Cc2ccc(Cc3cncc(C(=O)NCc4ccc5c(N)nccc5c4)n3)cc2)c1 [Example 9, N-[(1-Aminoisoquinolin-6-yl)methyl]-6-({4-[(4-methylpyrazol-1-yl)methyl]phenyl}methyl)pyrazine-2-carboxamide]
IC50 [1]: 0.0308 µM | IC50 [2]: 5.34 µM

CN(C)[C@@H]1CCN(c2ccc(Cc3cncc(C(=O)NCc4ccc5c(N)nccc5c4)c3)cn2)C1 (stereo in doubt) [Example 69, N-[(1-Aminoisoquinolin-6-yl)methyl]-5-({6-[3-(dimethylamino)pyrrolidin-1-yl]pyridin-3-yl}methyl)pyridine-3-carboxamide]
IC50 [1]: 0.579 µM | IC50 [2]: 2.43 µM

Nc1nccc2cc(CNC(=O)c3ccc(=O)n(Cc4csc(-c5ccccc5)n4)c3)ccc12 [Example 14, N-[(1-Aminoisoquinolin-6-yl)methyl]-6-oxo-1-[(2-phenyl-1,3-thiazol-4-yl)methyl]pyridine-3-carboxamide]
IC50 [1]: 2.67 µM | IC50 [2]: 4.16 µM

Cn1cc(CN2CCN(Cc3cncc(C(=O)NCc4ccc5c(N)nccc5c4)c3)CC2)cn1 [Example 47, N-[(1-Aminoisoquinolin-6-yl)methyl]-5-({4-[(1-methylpyrazol-4-yl)methyl]piperazin-1-yl}methyl)pyridine-3-carboxamide]
IC50 [1]: 40 µM | IC50 [2]: > 40 µM

Nc1nccc2cc(CNC(=O)c3cncc(Cc4ccc(N5CCC(F)(F)C5)nc4)c3)ccc12 [Example 57, N-[(1-Aminoisoquinolin-6-yl)methyl]-5-{[6-(3,3-difluoropyrrolidin-1-yl)pyridin-3-yl]methyl}pyridine-3-carboxamide]
IC50 [1]: 0.24 µM | IC50 [2]: > 40 µM

Nc1nccc2cc(CNC(=O)c3cncc(CN4CCN(Cc5ccccc5)CC4)c3)ccc12 [Example 41, N-[(1-Aminoisoquinolin-6-yl)methyl]-5-[(4-benzylpiperazin-1-yl)methyl]pyridine-3-carboxamide]
IC50 [1]: 2.75 µM | IC50 [2]: 37 µM

Nc1nccc2cc(CNC(=O)c3cncc(Cc4cccc(-n5cccn5)c4)c3)ccc12 [Example 30, N-[(1-Aminoisoquinolin-6-yl)methyl]-5-{[3-(pyrazol-1-yl)phenyl]methyl}pyridine-3-carboxamide]
IC50 [1]: 0.302 µM | IC50 [2]: 2.85 µM

COc1ccc(CN2CCN(Cc3cncc(C(=O)NCc4ccc5c(N)nccc5c4)c3)CC2)cc1 [Example 45, N-[(1-Aminoisoquinolin-6-yl)methyl]-5-({4-[(4-methoxyphenyl)methyl]piperazin-1-yl}methyl)pyridine-3-carboxamide]
IC50 [1]: 33.6 µM | IC50 [2]: 26.9 µM

Nc1nccc2cc(CNC(=O)c3cncc(CN4CCN(Cc5ccc(F)cc5)CC4)c3)ccc12 [Example 48, N-[(1-Aminoisoquinolin-6-yl)methyl]-5-({4-[(4-fluorophenyl)methyl]piperazin-1-yl}methyl)pyridine-3-carboxamide]
IC50 [1]: 21.9 µM | IC50 [2]: > 40 µM

Nc1nccc2cc(CNC(=O)c3cncc(Cc4csc(-c5ccccc5)n4)c3)ccc12 [Example 24, N-[(1-Aminoisoquinolin-6-yl)methyl]-5-[(2-phenyl-1,3-thiazol-4-yl)methyl]pyridine-3-carboxamide]
IC50 [1]: 1.71 µM | IC50 [2]: 4 µM

COc1ccc(Cc2cncc(C(=O)NCc3ccc4c(N)nccc4c3)c2)cc1 [Example 26, N-[(1-Aminoisoquinolin-6-yl)methyl]-5-[(4-methoxyphenyl)methyl]pyridine-3-carboxamide]
IC50 [1]: 0.941 µM | IC50 [2]: > 40 µM

Nc1nccc2cc(CNC(=O)c3cncc(CN4CCN(CCCc5ccccc5)CC4)c3)ccc12 [Example 50, N-[(1-Aminoisoquinolin-6-yl)methyl]-5-{[4-(3-phenylpropyl)piperazin-1-yl]methyl}pyridine-3-carboxamide]
IC50 [1]: 10 µM | IC50 [2]: > 10 µM

Nc1nccc2cc(CNC(=O)c3cncc(Cc4cccc(Cn5cccn5)c4)c3)ccc12 [Example 32, N-[(1-Aminoisoquinolin-6-yl)methyl]-5-{[3-(pyrazol-1-ylmethyl)phenyl]methyl}pyridine-3-carboxamide]
IC50 [1]: 0.237 µM | IC50 [2]: 9.53 µM

Cc1ccc2cc(Cn3cc(C(=O)NCc4ccc5c(N)nccc5c4)ccc3=O)ccc2n1 [Example 16, N-[(1-Aminoisoquinolin-6-yl)methyl]-1-[(2-methylquinolin-6-yl)methyl]-6-oxopyridine-3-carboxamide]
IC50 [1]: 0.179 µM | IC50 [2]: 2.06 µM

COc1cc(Cc2cncc(C(=O)NCc3ccc4c(N)nccc4c3)c2)ccc1Cn1cc(C)cn1 [Example 33, N-[(1-Aminoisoquinolin-6-yl)methyl]-5-({3-methoxy-4-[(4-methylpyrazol-1-yl)methyl]phenyl}methyl)pyridine-3-carboxamide]
IC50 [1]: 0.0171 µM | IC50 [2]: 17.1 µM

Nc1nccc2cc(CNC(=O)c3cncc(Cc4ccc(N5CCC(C(=O)O)C5)nc4)c3)ccc12 (stereo not shown) [Example 75, 1-{5-[(5-{[(1-Aminoisoquinolin-6-yl)methyl]carbamoyl}pyridin-3-yl)methyl]pyridin-2-yl}pyrrolidine-3-carboxylic acid]
IC50 [1]: 6.12 µM | IC50 [2]: > 10 µM

Nc1nccc2cc(CNC(=O)c3cncc(Cc4ccc5ccncc5c4)c3)ccc12 [Example 28, N-[(1-Aminoisoquinolin-6-yl)methyl]-5-(isoquinolin-7-ylmethyl)pyridine-3-carboxamide]
IC50 [1]: 1.1 µM | IC50 [2]: 5.9 µM

COC1CCN(c2ccc(Cc3cncc(C(=O)NCc4ccc5c(N)nccc5c4)c3)cn2)C1 (stereo not shown) [Example 62, N-[(1-Aminoisoquinolin-6-yl)methyl]-5-{[6-(3-methoxypyrrolidin-1-yl)pyridin-3-yl]methyl}pyridine-3-carboxamide]
IC50 [1]: 0.255 µM | IC50 [2]: 8.89 µM
